Like-named read-outs stand apart in the source and are kept apart here. Marks after values point to notes of the source that are not given here. Residues, ends and D or L forms follow the SMILES beside them. *: point of attachment. Cbz = O=C(OCc1ccccc1)*; CH2F = FC*

This is an account of results in publication PMC5833756, “A novel ruthenium complex with xanthoxylin induces S-phase arrest and causes ERK1/2-mediated apoptosis in HepG2 cells through a p53-independent pathway” (Cell Death & Disease, 2018).

The test system of data set [1] is HepG2 cells. Put plainly: DNA synthesis quantification (methyl-[3H]-thymidine incorporation). It is filed as cell-based, human. The following applies: HepG2, 12 μM. How it is done:
Cellular DNA synthesis was quantified by the incorporation of methyl-[^3H]-thymidine. Methyl-[^3H]-thymidine is a radiolabeled DNA precursor that is incorporated into newly synthesized DNA. Briefly, the complex was added along with 1 µCi of methyl-[^3H]-thymidine (PerkinElmer; Shelton, CT, USA) and incubated for 3 h. After this incubation period, cultures were harvested using a cell harvester (Brandel, Inc., Gaithersburg, MD, USA), and the amount of incorporated^3H-thymidine was determined using a liquid scintillation cocktail Hidex Maxilight (PerkinElmer Life Sciences; Groningen, GE, Netherlands) and a plate CHAMELEON V multilabel Counter (Mustionkatu 2, Turku, Finland). Mitoxantrone (Sigma-Aldrich) was used as the positive control.
(In general: Dividing cells build labelled thymidine or BrdU into new DNA.)

The subject of data set [2] is HepG2 cells. Put plainly: Annexin V/PI staining assay (flow cytometry). (In flow cytometry, cells or beads pass a laser one at a time.)
Description: For apoptosis detection, we used the FITC Annexin V Apoptosis Detection Kit I (BD Biosciences), and the analysis was performed according to the manufacturer’s instructions. Briefly, cells were washed twice with saline and then resuspended in 100 μL of binding buffer with 5 μL of PI and 5 μL of FITC Annexin V. The cells were gently mixed by vortexing and incubated for 15 min at room temperature in the dark. Afterwards, 400 μL of binding buffer was added to each tube, and the cell fluorescence was determined by flow cytometry, as described above. The percent of viable, early apoptotic, late apoptotic and necrotic cells were determined. […] The cells were then trypsinized, and the FITC Annexin V Apoptosis Detection assay was conducted as described above.
Another data set deals with HepG2 cell xenografts. Put plainly: Human hepatocellular carcinoma xenograft model. The class given is in vivo, C.B-17 SCID mice. To be noted: 0.3 mg/kg doxorubicin, 10 mg/kg 5-fluorouracil, i.p. once a day for 21 days. In general terms: In xenograft studies the graft and the host belong to different species.
For a further data set, the system named is BAD KO SV40 MEF. The class given is cell-based, mouse. The following applies: Mus musculus, 72 h.
The conditions of data set [3]: DOX 0.3 mg/kg, 5-FU 10 mg/kg.
Description: (§1) HepG2 cells (1 × 10^7 cells per 500 µL) were implanted subcutaneously into the left front armpit of the mice. […] The treatments were initiated one day after the tumor cell injection. The animals were treated intraperitoneally (200 µL per animal) once daily for 21 consecutive days. On the 22nd day, the animals were anesthetized, and peripheral blood samples were collected from the brachial artery. Animals were euthanized by anesthetic overdose, and tumors were excised and weighed.
To assess the toxicological effects, mice were weighed at the beginning and at the end of the experiment. […] Hematological analysis was performed using light microscopy. Livers, kidneys, lungs and hearts were removed, weighed and examined for any signs of gross lesions, color changes and/or hemorrhages. After gross macroscopic examination, the tumors, livers, kidneys, lungs and hearts were fixed in 4% formalin buffer and embedded in paraffin. Tissue sections were stained with hematoxylin and eosin chromogens, and a pathologist performed the analysis under a light microscope.
The test system of another data set is WT SV40 MEF. The class given is cell-based, mouse. To be noted: Mus musculus, 72 h.
A further data set deals with SCC-4. It is filed as cell-based, human. The following applies: SCC-4 (human oral squamous cell carcinoma), 72 h.
The subject of a further data set is HL-60. The class given is cell-based, human. The following applies: HL-60 (human promyelocytic leukemia), 72 h.
The next data set relates to B16-F10. The class given is cell-based, mouse. To be noted: B16-F10 (murine melanoma), 72 h.
A further data set relates to HepG2. It is filed as cell-based, human. To be noted: HepG2 (human hepatocellular carcinoma), monolayer, 72 h.
For another data set, the system named is PBMC. The class given is cell-based. To be noted: PBMC (human peripheral blood mononuclear cells, non-cancer), 72 h.
Data set [4] concerns HepG2 cells. Put plainly: Trypan blue exclusion assay. It is filed as cell-based, human.
A further data set relates to K-562. The class given is cell-based, human. The following applies: K-562 (human chronic myelogenous leukemia), 72 h.
Another data set deals with HCT116. The class given is cell-based, human. To be noted: HCT116 (human colon carcinoma), 72 h.
Data set [5] relates to multicellular spheroids formed from HepG2 cells. Put plainly: 3D multicellular spheroid culture, alamar blue. To be noted: HepG2 3D spheroids, 72 h. The class given is cell-based, human. As to the method: HepG2 cells were cultivated in 3D multicellular spheroids. Briefly, 100 μL of cell solution (0.5 × 10^6 cells/mL) was added to a 96-well plate with a cell-repellent surface (Greiner Bio-One, Kremsmünster, Austria) and cultured in complete medium plus 3% Matrigel (BD Biosciences, San Jose, CA, USA). Spheroids with stable structures formed after three days. Then, the spheroids were exposed to a range of drug concentrations for 72 h. The negative control received the vehicle that was used for diluting the complex tested. In the end of the experiment, morphological changes were examined by light microscopy (Olympus BX41, Tokyo, Japan) using Image-Pro software (Media Cybernetics, Inc. Silver Spring, USA), and cell viability was quantified by alamar blue assay as described above.

The test system of data set [6] is HepG2 cells. The class given is cell-based, human. To be noted: DOX 2 µM, OXA 10 µM, RCX 12 µM. How it is done: Briefly, the cells were harvested in a permeabilization solution containing 0.1% Triton X-100, 2 µg/mL PI, 0.1% sodium citrate and 100 µg/mL RNAse (all from Sigma-Aldrich) and incubated in the dark for 15 min at room temperature. Finally, cell fluorescence was measured by flow cytometry with a BD LSRFortessa cytometer using BD FACSDiva Software (BD Biosciences) and FlowJo Software 10 (FlowJo Lcc; Ashland, OR, USA). Ten thousand events were evaluated per experiment, and cellular debris was omitted from the analysis.

Another data set has as its system HSC-3. The class given is cell-based, human. To be noted: HSC-3 (human oral squamous cell carcinoma), 72 h.
In another data set the test system is MRC-5. The class given is cell-based. The following applies: MRC-5 (human lung fibroblast, non-cancer), 72 h.
Data set [7] has as its system panel of 15 cancer cell lines and 3 non-cancer cells. Put plainly: Alamar blue cytotoxicity assay, whole panel. It is filed as cell-based. To be noted: any cells of the panel, 72 h. As to the method: A panel of 15 cancer cell lines, 3 non-cancer cells and 1 mutant and its parental cell line were selected for this study, as detailed in Table S5. The cells were cultured in RPMI 1640 medium (Gibco-BRL, Gaithersburg, MD, USA) with 10% fetal bovine serum (Life, Carlsbad, CA, USA), 2 mM L-glutamine (Vetec Química Fina, Duque de Caxias, RJ, Brazil) and 50 μg/mL gentamycin (Life, Carlsbad, CA, USA). Adherent cells were collected by treatment with 0.25% trypsin EDTA solution (Gibco-BRL). All cell lines were cultured in flasks at 37 °C in 5% CO2 and subcultured every 3–4 days to maintain exponential growth. All cell lines were tested for mycoplasma using a mycoplasma stain kit (Sigma-Aldrich) to validate the use of cells free from contamination. […]
Cell viability was quantified colorimetrically using the alamar blue assay according to Ahmed et al.[34]. […] Absorbance was measured at 570 nm and 600 nm using the SpectraMax 190 Microplate Reader (Molecular Devices, Sunnyvale, CA, USA), and the drug effect was quantified as a percent of the absorbance of the control-treated cells.

Where [8] appears, read: HepG2, 2 h pretreatment (50 µM Z-VAD(Ome)-FMK, 20 µM Z-IETD-FMK, 20 µM Z-LEHD-FMK, 5 µM U-0126, 5 µM SP 600125, 5 µM PD 169316, 10 µM cyclic pifithrin-α), then 12 µM RCX 48 h.
[9] abbreviates: peripheral blood, i.p. 21 days, RCX 2.5 mg/kg.
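Throughout, for Final body weight: mice bearing subcutaneous HepG2 xenografts, given intraperitoneal doses once daily for 21 days, weighed at start and end, blood leukocytes counted by light microscopy on day 22.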
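Throughout, for Heart relative weight: mice bearing subcutaneous HepG2 xenografts, given intraperitoneal doses once daily for 21 days, weighed at start and end, blood leukocytes counted by light microscopy on day 22.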
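Throughout, for Initial body weight: mice bearing subcutaneous HepG2 xenografts, given intraperitoneal doses once daily for 21 days, weighed at start and end, blood leukocytes counted by light microscopy on day 22.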
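Throughout, for Kidney relative weight: mice bearing subcutaneous HepG2 xenografts, given intraperitoneal doses once daily for 21 days, weighed at start and end, blood leukocytes counted by light microscopy on day 22.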

Description for HepG2 cell xenografts: Animals were housed in cages with free access to food and water. All animals were kept under a 12:12 h light-dark cycle (lights on at 6:00 a.m.). The local Animal Ethics Committee approved the experimental protocol (number 06/2015).
as §1

Regarding `O=C1c2c(O)ccc(O)c2C(=O)c2c(NCCNCCO)ccc(NCCNCCO)c21` [Mitoxantrone], in the data set with HepG2 cells [1], the “reduction of DNA synthesis” value was 55.2%.
For `N#CC(=C(/N)Sc1ccccc1N)/C(C#N)=C(/N)Sc1ccccc1N` [U-0126], in the data set with HepG2 cells [2], the “effect of inhibitor pretreatment on RCX-induced apoptosis” value (from here on “effect of inhibitor pretreatment”) was “prevented RCX-induced apoptosis”.
With `COC(=O)CC[C@H](NC(=O)[C@H](CC(C)C)NC(=O)OCc1ccccc1)C(=O)N[C@@H](Cc1cnc[nH]1)C(=O)N[C@@H](CC(=O)OC)C(=O)CF` [Z-LEHD-FMK] (Cbz-LE(OMe)HD(OMe)-CH2F), in the data set with HepG2 cells [2] (setting [8]), the “effect of inhibitor pretreatment” value is on record as “prevented the RCX-induced apoptosis”.
As to `Cc1ccc(-c2cn3c4c(sc3n2)CCCC4)cc1` [cyclic pifithrin-α], the “effect of inhibitor pretreatment” value in the data set on HepG2 cells [2] is reported as “did not prevent the RCX-induced apoptosis”.
For the compound `O=c1[nH]cc(F)c(=O)[nH]1` [5-FU, 5-fluorouracil], the “reduction of tumor weight” value in the data set with HepG2 cell xenografts is reported as 40.3%. For the same compound, half-maximal inhibition with BAD KO SV40 MEF (IC50) required 7.3 µM. For the same compound, the Initial body weight in data set [3] (before treatment, RCX 2.5 mg/kg groups) turned out to be 25.2 ± 0.4 g. In data set [3] (i.p. 21 days, RCX 2.5 mg/kg), this compound showed a Final body weight of 24.1 ± 1.7 g, a Heart relative weight of 0.5 ± 0.2 g/100 g body weight, a Kidney relative weight of 1.2 ± 0.4 g/100 g body weight and a Liver relative weight of 3.4 ± 0.7 g/100 g body weight. In addition, in data set [3] (i.p. 21 days, RCX 2.5 mg/kg), the Lung relative weight was determined as 0.6 ± 0.2 g/100 g body weight and the Survival is given as 9/15. Moreover, in data set [3] (setting [9]), the “Differential leukocytes: Eosinophils” value was 1.0%, the “Differential leukocytes: Lymphocytes” value worked out at 32.8%, the “Differential leukocytes: Monocytes” value is 1.3% and the “Differential leukocytes: Neutrophils” value amounted to 65.0%. Moreover, in data set [3] (setting [9]), the Erythrocytes was 8.4 ± 0.5 10^6cells/μL and the Total leukocytes is 1.8 ± 0.3* 10^3cells/μL. Besides, the IC50 (usually the concentration needed to halve the response being measured) in the data set with WT SV40 MEF is 1.7 µM.
For `Oc1c2ccccc2c2c3c(cccc13)N=N2` [SP 600125], the “effect of inhibitor pretreatment” value in the data set on HepG2 cells [2] (setting [8]) is listed as “did not prevent RCX-induced apoptosis”.
Consider `O=C1[O][Pt]2([NH][C@@H]3CCCC[C@H]3[NH]2)[O]C1=O` [OXA, oxaliplatin], for which the IC50 came to 7.7 µM in the data set on SCC-4; 0.6 µM in the data set with HL-60; 2.2 µM in the data set with B16-F10; 2.2 µM with HepG2; 9.4 µM in the data set with PBMC; 1 µM with K-562. Besides, the 50% inhibitory concentration (IC50) in the data set with HCT116 worked out at 4.1 µM; in data set [5], 6.6 µM; in the data set on HSC-3, 3.3 µM; in the data set with MRC-5, 9.5 µM. Also, in the data set with HepG2 cells [4] (HepG2, 24 h, DOX 2 µM, OXA 10 µM), the “change in the number of viable cells” value is given as “reduced the number of viable cells”. For the same compound, the “DNA content S” value with HepG2 cells [6] (HepG2, 12 h) stood at 12.9 ± 4.4%; in the data set with HepG2 cells [6] (HepG2, 24 h), 18.5 ± 1.4%; in the data set on HepG2 cells [6] (HepG2, 48 h), 21.2 ± 1.7 %; in the data set with HepG2 cells [6] (HepG2, 72 h) it was 16.2 ± 1.1%.
For `CC(=O)N[C@@H](CS)C(=O)O` [N-acetyl-L-cysteine], in the data set on HepG2 cells [4] (HepG2, 1 h pretreatment with 5 mM NAC, then 12 µM RCX for 24 h), the “protection against RCX-induced reduction in viable cells” value is listed as “did not prevent the reduction in the number of viable cells”.
In the case of `CC[C@H](C)[C@H](NC(=O)OCc1ccccc1)C(=O)N[C@@H](CCC(=O)OC)C(=O)N[C@H](C(=O)N[C@@H](CC(=O)OC)C(=O)CF)[C@@H](C)O` [Z-IETD-FMK] (Cbz-IE(OMe)TD(OMe)-CH2F), the “effect of inhibitor pretreatment” value in the data set with HepG2 cells [2] was “prevented the RCX-induced apoptosis”.
With `COc1cc(O)c(C(C)=O)c(OC)c1` [xanthoxylin, 2-hydroxy-4,6-dimethoxyacetophenone], in data set [7], the IC50 is greater than 127 µM.
Take `COC(=O)C[C@H](NC(=O)[C@H](C)NC(=O)[C@@H](NC(=O)OCc1ccccc1)C(C)C)C(=O)CF` [Z-VAD(OMe)-FMK] (Cbz-Val-Ala-Asp(OMe)-CH2F): the “effect of inhibitor pretreatment” value in the data set with HepG2 cells [2] was “prevented the RCX-induced apoptosis”.
